Assay results: patent US12275731B2, “Azaindole inhibitors of wild-type and mutant forms of LRRK2” (DANA-FARBER CANCER INSTITUTE, INC., priority 2018, dated 2025)

Key:
Assay in all cases: KinomeScan profiling
Assay type in all cases: binding
TNNI3K = target: T1, TNNI3K (Homo sapiens, UniProt Q59H18); settings: read-out: % control
T1 sequence (Q59H18 1-835): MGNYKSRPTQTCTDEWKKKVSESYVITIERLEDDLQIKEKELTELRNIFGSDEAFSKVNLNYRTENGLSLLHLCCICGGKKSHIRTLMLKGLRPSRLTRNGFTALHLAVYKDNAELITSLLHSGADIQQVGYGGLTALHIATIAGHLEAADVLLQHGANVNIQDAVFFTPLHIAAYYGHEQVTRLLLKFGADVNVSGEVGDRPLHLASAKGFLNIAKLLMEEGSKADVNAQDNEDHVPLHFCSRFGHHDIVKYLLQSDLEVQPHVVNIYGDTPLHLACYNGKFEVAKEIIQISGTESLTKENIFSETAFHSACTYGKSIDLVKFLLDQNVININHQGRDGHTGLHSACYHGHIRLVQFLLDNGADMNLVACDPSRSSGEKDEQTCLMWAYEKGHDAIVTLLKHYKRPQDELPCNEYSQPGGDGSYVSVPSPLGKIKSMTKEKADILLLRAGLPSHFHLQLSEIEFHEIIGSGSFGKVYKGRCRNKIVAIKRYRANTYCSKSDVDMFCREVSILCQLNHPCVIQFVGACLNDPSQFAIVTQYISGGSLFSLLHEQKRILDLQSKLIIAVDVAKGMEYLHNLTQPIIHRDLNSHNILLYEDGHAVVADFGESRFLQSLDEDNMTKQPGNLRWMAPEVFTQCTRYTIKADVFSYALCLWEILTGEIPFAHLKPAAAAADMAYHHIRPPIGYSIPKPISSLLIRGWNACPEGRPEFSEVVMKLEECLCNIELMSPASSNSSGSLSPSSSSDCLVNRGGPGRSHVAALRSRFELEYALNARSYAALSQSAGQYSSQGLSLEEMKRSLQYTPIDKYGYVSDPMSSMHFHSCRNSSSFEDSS
Method in brief: (§1)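 Normalised RLU (% control; DMSO 100%, positive control 0%) was measured for compounds dosed at 1 μM over 468 kinases, active cut-off <35%.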

DCAMKL1 = target: T2, DCAMKL1 (Homo sapiens, UniProt O15075); settings: DCAMKL1, 1 μM; read-out: % control
T2 sequence (O15075 1-740): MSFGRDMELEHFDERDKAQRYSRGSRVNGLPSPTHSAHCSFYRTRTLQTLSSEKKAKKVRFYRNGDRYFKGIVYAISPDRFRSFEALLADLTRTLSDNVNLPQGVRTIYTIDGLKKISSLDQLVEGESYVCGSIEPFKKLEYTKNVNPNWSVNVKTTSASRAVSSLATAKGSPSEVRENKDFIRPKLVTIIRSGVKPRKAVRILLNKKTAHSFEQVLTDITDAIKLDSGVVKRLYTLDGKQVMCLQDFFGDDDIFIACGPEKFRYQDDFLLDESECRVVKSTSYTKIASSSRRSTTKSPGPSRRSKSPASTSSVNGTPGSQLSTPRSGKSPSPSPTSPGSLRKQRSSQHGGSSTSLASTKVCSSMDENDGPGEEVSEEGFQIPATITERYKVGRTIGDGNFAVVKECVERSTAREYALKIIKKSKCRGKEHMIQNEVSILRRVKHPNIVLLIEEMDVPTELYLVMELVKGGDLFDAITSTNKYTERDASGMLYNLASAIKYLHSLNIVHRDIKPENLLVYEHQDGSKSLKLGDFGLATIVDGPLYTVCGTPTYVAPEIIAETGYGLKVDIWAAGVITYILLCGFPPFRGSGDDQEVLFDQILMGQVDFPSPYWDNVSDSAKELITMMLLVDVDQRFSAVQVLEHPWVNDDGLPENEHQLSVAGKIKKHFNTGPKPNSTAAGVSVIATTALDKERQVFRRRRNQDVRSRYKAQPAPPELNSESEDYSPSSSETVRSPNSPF
Method in brief: as §1

PIK3CA(E542K) = target: T3, PIK3CA(E542K) (Homo sapiens, UniProt P42336, E542K); settings: read-out: % control
T3 construct: purchased KinomeScan® (panel service)
Method in brief: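 1 μM cpd in DMSO; 468-kinase panel; readout RLU. % ctrl = (cpd − pos ctrl)/(neg ctrl − pos ctrl) ×100. Pos ctrl = 0%, DMSO = 100%. Hit cut-off <35%.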

LATS2 = target: T4, LATS2 (Homo sapiens, UniProt Q9NRM7); settings: LATS2, 1 μM; read-out: % control
T4 sequence (Q9NRM7 1-1088): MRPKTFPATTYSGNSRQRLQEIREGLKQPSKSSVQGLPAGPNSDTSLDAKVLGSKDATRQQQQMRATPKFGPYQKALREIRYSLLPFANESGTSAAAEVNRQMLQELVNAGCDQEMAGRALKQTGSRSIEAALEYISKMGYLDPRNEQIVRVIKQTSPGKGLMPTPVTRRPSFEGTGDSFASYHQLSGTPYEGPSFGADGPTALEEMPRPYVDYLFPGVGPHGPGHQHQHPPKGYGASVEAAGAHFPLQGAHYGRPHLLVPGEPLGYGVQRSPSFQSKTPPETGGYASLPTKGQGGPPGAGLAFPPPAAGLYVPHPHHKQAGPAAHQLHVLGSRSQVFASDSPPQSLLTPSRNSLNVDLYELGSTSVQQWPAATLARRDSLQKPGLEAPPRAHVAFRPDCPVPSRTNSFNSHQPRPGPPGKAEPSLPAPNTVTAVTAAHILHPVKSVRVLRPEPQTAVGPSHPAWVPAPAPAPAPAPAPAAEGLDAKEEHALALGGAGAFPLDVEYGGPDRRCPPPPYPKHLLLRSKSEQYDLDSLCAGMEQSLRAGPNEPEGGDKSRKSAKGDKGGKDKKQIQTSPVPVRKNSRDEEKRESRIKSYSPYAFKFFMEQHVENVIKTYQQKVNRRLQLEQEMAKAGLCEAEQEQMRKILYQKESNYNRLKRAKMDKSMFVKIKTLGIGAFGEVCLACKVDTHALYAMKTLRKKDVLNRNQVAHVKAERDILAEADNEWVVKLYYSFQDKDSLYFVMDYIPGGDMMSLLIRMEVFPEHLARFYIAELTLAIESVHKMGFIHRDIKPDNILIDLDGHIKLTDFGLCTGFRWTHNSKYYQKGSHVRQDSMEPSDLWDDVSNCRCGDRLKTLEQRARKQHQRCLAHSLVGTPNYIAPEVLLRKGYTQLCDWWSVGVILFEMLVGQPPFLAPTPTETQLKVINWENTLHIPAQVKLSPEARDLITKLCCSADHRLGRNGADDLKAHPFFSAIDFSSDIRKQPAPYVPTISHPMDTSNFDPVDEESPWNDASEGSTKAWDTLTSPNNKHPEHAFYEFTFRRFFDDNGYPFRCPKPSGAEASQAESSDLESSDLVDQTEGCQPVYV
Method in brief: as §1

T3 sequence (P42336 whole entry E542K): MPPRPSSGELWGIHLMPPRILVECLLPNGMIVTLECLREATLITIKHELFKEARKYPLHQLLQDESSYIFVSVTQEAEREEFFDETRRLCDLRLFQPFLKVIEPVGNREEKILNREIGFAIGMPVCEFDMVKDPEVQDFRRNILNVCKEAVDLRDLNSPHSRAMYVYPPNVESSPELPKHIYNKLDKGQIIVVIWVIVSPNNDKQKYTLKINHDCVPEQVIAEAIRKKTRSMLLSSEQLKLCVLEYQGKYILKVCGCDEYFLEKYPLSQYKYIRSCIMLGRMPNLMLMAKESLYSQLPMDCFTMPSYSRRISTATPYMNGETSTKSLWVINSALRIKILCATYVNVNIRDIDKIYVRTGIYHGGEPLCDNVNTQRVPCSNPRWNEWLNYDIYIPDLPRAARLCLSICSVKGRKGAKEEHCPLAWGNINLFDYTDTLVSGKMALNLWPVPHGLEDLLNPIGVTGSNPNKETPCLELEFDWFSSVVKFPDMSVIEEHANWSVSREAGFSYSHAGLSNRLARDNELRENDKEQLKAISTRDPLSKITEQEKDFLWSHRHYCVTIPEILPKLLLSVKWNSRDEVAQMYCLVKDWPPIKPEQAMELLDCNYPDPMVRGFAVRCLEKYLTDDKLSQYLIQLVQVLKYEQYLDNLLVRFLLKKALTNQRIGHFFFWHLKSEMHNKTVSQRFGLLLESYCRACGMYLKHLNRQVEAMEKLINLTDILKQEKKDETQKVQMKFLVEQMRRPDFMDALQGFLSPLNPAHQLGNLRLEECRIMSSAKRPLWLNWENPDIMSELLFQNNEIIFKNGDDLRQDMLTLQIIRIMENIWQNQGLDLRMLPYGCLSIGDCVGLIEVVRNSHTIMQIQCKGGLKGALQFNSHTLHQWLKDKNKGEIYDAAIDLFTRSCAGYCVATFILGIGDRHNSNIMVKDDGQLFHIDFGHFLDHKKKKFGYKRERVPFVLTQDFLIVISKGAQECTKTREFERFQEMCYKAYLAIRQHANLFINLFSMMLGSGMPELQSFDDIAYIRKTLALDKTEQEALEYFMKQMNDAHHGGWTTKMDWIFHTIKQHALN

| Compound | remaining binding at 1 µM (TNNI3K) [%] | remaining binding at 1 µM (DCAMKL1) [%] | remaining binding at 1 µM (PIK3CA(E542K)) [%] | remaining binding at 1 µM (LATS2) [%] |
| --- | --- | --- | --- | --- |
| CNc1c(-c2cnn([C@H]3CCN(C(C)=O)C[C@@H]3F)c2)cnc2[nH]cc(Cl)c12 [Compound 77, 1-((3S,4S)-4-(4-(3-chloro-4-(methylamino)-1H-pyrrolo[2,3-b]pyridin-5-yl)-1H-pyrazol-1-yl)-3-fluoropiperidin-1-yl)ethan-1-one] | 65 | 79 | 100 | 86 |
| CNc1c(-c2ccc(C(=O)N3CCC(N4CCOCC4)CC3)cc2)cnc2[nH]cc(Cl)c12 [Compound 96, (4-(3-chloro-4-(methylamino)-1H-pyrrolo[2,3-b]pyridin-5-yl)phenyl)(4-morpholinopiperidin-1-yl)methanone] | 74 | 77 | 100 | 78 |
| O=C(c1ccc(-c2cnc3[nH]cc(Cl)c3c2NC2CCCC2)cc1)N1CCC(N2CCOCC2)CC1 [Compound 101, (4-(3-chloro-4-(cyclopentylamino)-1H-pyrrolo[2,3-b]pyridin-5-yl)phenyl)(4-morpholinopiperidin-1-yl)methanone] | 100 | 90 | 98 | 82 |
